Experimental findings from ChEMBL document CHEMBL4699607, “Design, synthesis, and computational validation of novel compounds selectively targeting HER2-expressing breast cancer” (Bioorg Med Chem Lett, 2020) are described below.

One may read the inhibition as the share of the control response that was lost under treatment. As a reminder, the IC50 is the concentration at which inhibition is half-maximal.

Experiment [1] relates to MCF7. Description: Cytotoxicity against human MCF-7 assessed as reduction cell viability at 10 uM by SRB assay. Type of experiment: functional. In general terms: The SRB assay estimates cell density from bound dye.
In the next experiment the test system is MDA-MB-231. The experiment is described as follows: Cytotoxicity against human MDA-MB-231 cells assessed as reduction in cell viability at 10 uM by SRB assay. Type of experiment: functional, cell-based.
Experiment [2] relates to MCF7. The experiment is described as follows: Cytotoxicity against human MCF-7 assessed as reduction in cell viability by SRB assay.
In experiment [3] the test system is SK-BR-3. The experiment is described as follows: Cytotoxicity against human SKBr3 assessed as reduction in cell viability by SRB assay.
Experiment [4] concerns SK-BR-3. The experiment is described as follows: Cytotoxicity against human SKBr3 assessed as reduction cell viability at 10 uM by SRB assay. Type of experiment: functional.
Experiment [5] addresses Receptor tyrosine-protein kinase erbB-2 (Homo sapiens) (UniProt P04626). Description: Inhibition of HER2 (unknown origin) at 10 uM by ELISA. (In general: ELISA stands for enzyme-linked immunosorbent assay.)

Calls of active or inactive are those of the source. The calls are words filed in the database; no cut-off is given here.

Sequence of Receptor tyrosine-protein kinase erbB-2 (Homo sapiens) (P04626 whole entry): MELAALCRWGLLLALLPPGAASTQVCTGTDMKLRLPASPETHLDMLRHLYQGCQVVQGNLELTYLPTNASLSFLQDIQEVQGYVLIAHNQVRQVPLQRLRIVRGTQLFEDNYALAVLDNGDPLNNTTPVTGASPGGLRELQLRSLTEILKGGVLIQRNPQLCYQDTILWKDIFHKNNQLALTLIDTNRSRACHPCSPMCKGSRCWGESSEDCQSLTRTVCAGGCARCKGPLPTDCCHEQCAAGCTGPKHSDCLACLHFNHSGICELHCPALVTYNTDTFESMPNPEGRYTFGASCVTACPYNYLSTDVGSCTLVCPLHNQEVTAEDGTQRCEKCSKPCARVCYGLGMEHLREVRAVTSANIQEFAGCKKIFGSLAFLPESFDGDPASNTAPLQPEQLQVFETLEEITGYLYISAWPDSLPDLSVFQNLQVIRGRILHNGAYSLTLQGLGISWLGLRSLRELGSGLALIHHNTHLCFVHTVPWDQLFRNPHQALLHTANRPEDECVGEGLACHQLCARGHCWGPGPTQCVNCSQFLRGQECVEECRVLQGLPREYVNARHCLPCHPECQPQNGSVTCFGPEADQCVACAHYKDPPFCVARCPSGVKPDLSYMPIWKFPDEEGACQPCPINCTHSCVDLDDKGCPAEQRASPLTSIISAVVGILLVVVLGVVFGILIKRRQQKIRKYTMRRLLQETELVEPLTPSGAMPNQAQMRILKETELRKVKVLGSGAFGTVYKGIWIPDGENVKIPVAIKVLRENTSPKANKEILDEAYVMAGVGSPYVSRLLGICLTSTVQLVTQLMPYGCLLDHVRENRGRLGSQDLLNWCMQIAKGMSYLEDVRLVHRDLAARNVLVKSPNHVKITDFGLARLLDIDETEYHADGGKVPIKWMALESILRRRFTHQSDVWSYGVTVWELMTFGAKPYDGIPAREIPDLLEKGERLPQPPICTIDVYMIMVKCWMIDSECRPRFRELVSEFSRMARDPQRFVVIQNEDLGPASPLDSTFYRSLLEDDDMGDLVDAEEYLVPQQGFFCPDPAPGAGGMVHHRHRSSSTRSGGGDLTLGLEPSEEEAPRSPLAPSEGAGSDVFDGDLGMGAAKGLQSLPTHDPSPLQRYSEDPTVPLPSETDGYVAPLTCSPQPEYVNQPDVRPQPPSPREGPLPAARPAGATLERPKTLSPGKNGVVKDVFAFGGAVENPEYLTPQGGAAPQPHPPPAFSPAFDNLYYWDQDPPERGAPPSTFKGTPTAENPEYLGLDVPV

As to `Cc1ccc(S(=O)(=O)NC(=O)Nc2ncccc2Br)cc1`, the inhibition at 10 µM in the experiment on MCF7 [1] was determined as 11.2%. Also, the inhibition entry in the experiment with MDA-MB-231 is “inactive”.

On to `S=C(NCCc1ccccc1)Nc1ncccc1Br`, for which the IC50 in the experiment on MCF7 [2] was determined as 16200 nM; in the experiment on SK-BR-3 [3] it was 1110 nM. Further, the inhibition at 10 µM is 63% with MCF7 [1] and 78.8% in the experiment with SK-BR-3 [4]. The same compound returned an inhibition in experiment [5] of 84.7%. The inhibition entry in the experiment with MDA-MB-231 was “inactive”.

Turning to `S=C(Nc1ccc(Cl)cc1Br)Nc1ncccc1Br`, the IC50 in the experiment on MCF7 [2] came out at 2500 nM; in the experiment with SK-BR-3 [3], 3400 nM. The inhibition at 10 µM stood at 64.1% in the experiment with MCF7 [1] and 74.8% with SK-BR-3 [4]. In addition, in experiment [5], the inhibition is 82.6%. Also, the inhibition entry in the experiment on MDA-MB-231 was “inactive”.

Consider `S=C(Nc1ccc(Cl)cc1Cl)Nc1ncccc1Br`, for which the IC50 was determined as 1300 nM in the experiment on MCF7 [2] and 730 nM with SK-BR-3 [3]. The inhibition at 10 µM was 72.4% in the experiment on MCF7 [1] and 79.7% in the experiment on SK-BR-3 [4]. The inhibition in experiment [5] was found to be 87%. For the same compound, the inhibition result in the experiment with MDA-MB-231 is “inactive”.

With `COc1ccccc1CNC(=O)NS(=O)(=O)c1ccccc1`, the inhibition at 10 µM in the experiment with MCF7 [1] was found to be 10.3%. Besides, in the experiment on MDA-MB-231, the inhibition entry is “inactive”.
